Source: patent publication US10800791B2, “Triazole ACC inhibitors and uses thereof” (Gilead Apollo, LLC, priority 2015, dated 2020)
Values after ≈ are worked out from the molar mass of the structure shown. Where two headings read alike, the source gives them in different places.

Key:
[1] = target: human (hACC2) (Homo sapiens, UniProt O00763); assay: In vitro ACC inhibition assay (ADP-Glo), hACC2; assay type: biochemical; details: 5 nM ACC2, 20 μM ATP, 20 μM acetyl-CoA
Procedure: The detailed procedure is as follows. […] 10 μL ADP glo reagent was added. […] 20 μL kinase detection reagent was added.

[2] = tested on: C. albicans; assay: Antifungal Activity Assay (broth microtiter MIC), C. albicans; assay type: cell-based, Candida albicans; details: Candida albicans, ATCC90028, 48 h
Outline: (§1)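 CLSI M27-A3 microdilution; RPMI 1640+MOPS; 2.5×10^3 CFU/mL final inoculum; cultures from Sabouraud dextrose agar, 35° C overnight; compound working solution 128 μg/mL from 1 mg/mL DMSO stock; visual MIC at 48 h vs growth control.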

[3] = tested on: C. parapsilosis; assay: Antifungal Activity Assay (broth microtiter MIC), C. parapsilosis; assay type: cell-based, Candida parapsilosis; details: Lodderomyces parapsilosis, ATCC22019, 48 h
Outline: as §1

[4] = tested on: Botrtyis cinerea (Bc); assay: Growth inhibition assay of fungal pathogens, Bc; assay type: cell-based; details: 48 h
Outline: (§2)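 Percent inhibition derived at 48 hours from OD600 and visual scores versus 2% DMSO control, with media+DMSO blank as background. Spore inocula in 17% V8 medium were sized from 48 h growth curves; compounds tested at final 50/10/2 or 2/0.4/0.08 ppm.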

[5] = tested on: Collectotrichum graminicola (Cg); assay: Growth inhibition assay of fungal pathogens, Cg; assay type: cell-based; details: 48 h
Outline: as §2

[6] = tested on: Diplodia maydis (Dm); assay: Growth inhibition assay of fungal pathogens, Dm; assay type: cell-based; details: Stenocarpella maydis, 48 h
Outline: as §2

[7] = tested on: Phytophthora capsici (Pc); assay: Growth inhibition assay of fungal pathogens, Pc; assay type: cell-based; details: 48 h
Outline: as §2

[8] = tested on: Rhizoctonia solani (Rs); assay: Growth inhibition assay of fungal pathogens, Rs; assay type: cell-based; details: 48 h
[9] = tested on: Septoria tritici (St); assay: Growth inhibition assay of fungal pathogens, St; assay type: cell-based; details: Zymoseptoria tritici, 48 h
Outline: as §2

[10] = target: fungal (fACC2) (UniProt Q00955); details: read-out: fACC2 (in vitro ACC2 Inhibition Assay, IC50), ADP-Glo, 5 nM ACC2, 20 μM ATP, 20 μM acetyl-CoA
Chain of fungal (fACC2) (Q00955 whole entry): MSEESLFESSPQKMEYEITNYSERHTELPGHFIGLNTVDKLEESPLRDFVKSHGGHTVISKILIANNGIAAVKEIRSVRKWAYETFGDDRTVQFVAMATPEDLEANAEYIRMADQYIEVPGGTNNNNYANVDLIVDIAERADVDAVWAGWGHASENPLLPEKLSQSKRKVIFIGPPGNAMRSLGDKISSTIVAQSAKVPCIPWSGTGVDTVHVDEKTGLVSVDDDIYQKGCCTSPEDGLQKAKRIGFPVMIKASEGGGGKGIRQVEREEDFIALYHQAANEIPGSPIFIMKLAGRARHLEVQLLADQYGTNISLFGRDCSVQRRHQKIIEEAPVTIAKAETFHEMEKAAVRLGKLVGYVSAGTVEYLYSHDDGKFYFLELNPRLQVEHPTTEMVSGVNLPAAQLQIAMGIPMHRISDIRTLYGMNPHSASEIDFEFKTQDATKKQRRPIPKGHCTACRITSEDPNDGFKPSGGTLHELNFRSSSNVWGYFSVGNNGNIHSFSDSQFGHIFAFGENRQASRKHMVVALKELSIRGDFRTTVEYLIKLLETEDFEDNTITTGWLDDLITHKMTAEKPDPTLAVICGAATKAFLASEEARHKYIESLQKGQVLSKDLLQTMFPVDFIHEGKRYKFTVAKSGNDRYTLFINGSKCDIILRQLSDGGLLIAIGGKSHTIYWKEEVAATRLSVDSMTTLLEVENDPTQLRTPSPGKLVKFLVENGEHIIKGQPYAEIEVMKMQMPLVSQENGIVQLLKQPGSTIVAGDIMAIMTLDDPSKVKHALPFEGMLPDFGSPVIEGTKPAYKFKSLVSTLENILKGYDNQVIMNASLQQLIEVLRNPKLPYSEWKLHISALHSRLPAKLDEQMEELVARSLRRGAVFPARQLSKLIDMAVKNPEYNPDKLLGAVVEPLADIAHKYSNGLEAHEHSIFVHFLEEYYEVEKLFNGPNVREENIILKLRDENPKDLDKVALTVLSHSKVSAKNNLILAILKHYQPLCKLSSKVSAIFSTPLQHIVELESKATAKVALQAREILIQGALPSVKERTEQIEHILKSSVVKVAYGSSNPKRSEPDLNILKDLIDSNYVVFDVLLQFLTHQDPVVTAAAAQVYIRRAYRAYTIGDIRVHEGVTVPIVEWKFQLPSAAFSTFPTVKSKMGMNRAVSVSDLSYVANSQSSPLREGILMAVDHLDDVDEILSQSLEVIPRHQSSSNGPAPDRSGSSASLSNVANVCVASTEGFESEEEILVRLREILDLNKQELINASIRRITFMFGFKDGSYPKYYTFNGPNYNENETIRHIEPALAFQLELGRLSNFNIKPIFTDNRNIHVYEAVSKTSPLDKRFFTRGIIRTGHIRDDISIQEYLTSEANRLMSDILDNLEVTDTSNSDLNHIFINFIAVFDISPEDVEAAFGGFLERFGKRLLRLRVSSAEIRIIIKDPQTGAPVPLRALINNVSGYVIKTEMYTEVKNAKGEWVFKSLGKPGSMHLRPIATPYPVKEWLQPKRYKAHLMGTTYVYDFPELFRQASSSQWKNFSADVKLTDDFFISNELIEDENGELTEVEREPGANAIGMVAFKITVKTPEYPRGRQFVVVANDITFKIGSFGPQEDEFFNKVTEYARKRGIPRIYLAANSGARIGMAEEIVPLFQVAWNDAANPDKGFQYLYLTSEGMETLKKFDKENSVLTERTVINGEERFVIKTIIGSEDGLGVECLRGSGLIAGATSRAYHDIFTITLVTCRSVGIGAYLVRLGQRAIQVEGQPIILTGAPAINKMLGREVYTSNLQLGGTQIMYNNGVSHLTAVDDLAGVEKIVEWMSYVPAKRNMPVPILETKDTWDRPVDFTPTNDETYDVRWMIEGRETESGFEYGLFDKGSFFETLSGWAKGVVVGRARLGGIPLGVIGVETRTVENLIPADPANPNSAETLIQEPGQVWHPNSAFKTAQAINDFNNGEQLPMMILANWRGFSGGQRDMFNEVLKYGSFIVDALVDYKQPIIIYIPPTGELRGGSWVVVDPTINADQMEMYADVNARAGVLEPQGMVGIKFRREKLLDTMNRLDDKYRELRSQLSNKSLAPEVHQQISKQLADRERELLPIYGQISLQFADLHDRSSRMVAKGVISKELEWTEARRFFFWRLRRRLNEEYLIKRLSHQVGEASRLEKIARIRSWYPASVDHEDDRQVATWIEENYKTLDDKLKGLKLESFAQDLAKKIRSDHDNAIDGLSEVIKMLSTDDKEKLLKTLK

[11] = read-out: MIC, C. albicans ATCC 90028, Table 3a, 3 replicates, MIC recorded at 48 h
[12] = read-out: MIC, C. albicans ATCC 90028, Table 3b (additional results), 3 replicates, MIC recorded at 48 h
[13] = read-out: MIC, C. parapsilosis ATCC 22019, Table 3a, 3 replicates, MIC recorded at 48 h
[14] = read-out: MIC, C. parapsilosis ATCC 22019, Table 3b (additional results), 3 replicates, MIC recorded at 48 h
[15] = read-out: Concentration at 90% Inhibition Bc, Botrtyis cinerea, growth inhibition at 48 hours vs 2% DMSO control
[16] = read-out: Concentration at 90% Inhibition Bc, Botrtyis cinerea, growth inhibition vs 2% DMSO control at 48 hours
[17] = read-out: Concentration at 90% Inhibition Cg, Collectotrichum graminicola, growth inhibition at 48 hours vs 2% DMSO control
[18] = read-out: Concentration at 90% Inhibition Cg, Collectotrichum graminicola, growth inhibition vs 2% DMSO control at 48 hours
[19] = read-out: Concentration at 90% Inhibition Dm, Diplodia maydis, growth inhibition at 48 hours vs 2% DMSO control
[20] = read-out: Concentration at 90% Inhibition Dm, Diplodia maydis, growth inhibition vs 2% DMSO control at 48 hours
[21] = read-out: Concentration at 90% Inhibition Pc, Phytophthora capsici, growth inhibition at 48 hours vs 2% DMSO control
[22] = read-out: Concentration at 90% Inhibition Pc, Phytophthora capsici, growth inhibition vs 2% DMSO control at 48 hours
[23] = read-out: Concentration at 90% Inhibition Rs, Rhizoctonia solani, mycelial plugs, growth inhibition at 48 hours vs 2% DMSO control
[24] = read-out: Concentration at 90% Inhibition Rs, Rhizoctonia solani, mycelial plugs, growth inhibition vs 2% DMSO control at 48 hours
[25] = read-out: Concentration at 90% Inhibition St, Septoria tritici, growth inhibition at 48 hours vs 2% DMSO control
[26] = read-out: Concentration at 90% Inhibition St, Septoria tritici, growth inhibition vs 2% DMSO control at 48 hours

Chain of human (hACC2) (O00763 whole entry): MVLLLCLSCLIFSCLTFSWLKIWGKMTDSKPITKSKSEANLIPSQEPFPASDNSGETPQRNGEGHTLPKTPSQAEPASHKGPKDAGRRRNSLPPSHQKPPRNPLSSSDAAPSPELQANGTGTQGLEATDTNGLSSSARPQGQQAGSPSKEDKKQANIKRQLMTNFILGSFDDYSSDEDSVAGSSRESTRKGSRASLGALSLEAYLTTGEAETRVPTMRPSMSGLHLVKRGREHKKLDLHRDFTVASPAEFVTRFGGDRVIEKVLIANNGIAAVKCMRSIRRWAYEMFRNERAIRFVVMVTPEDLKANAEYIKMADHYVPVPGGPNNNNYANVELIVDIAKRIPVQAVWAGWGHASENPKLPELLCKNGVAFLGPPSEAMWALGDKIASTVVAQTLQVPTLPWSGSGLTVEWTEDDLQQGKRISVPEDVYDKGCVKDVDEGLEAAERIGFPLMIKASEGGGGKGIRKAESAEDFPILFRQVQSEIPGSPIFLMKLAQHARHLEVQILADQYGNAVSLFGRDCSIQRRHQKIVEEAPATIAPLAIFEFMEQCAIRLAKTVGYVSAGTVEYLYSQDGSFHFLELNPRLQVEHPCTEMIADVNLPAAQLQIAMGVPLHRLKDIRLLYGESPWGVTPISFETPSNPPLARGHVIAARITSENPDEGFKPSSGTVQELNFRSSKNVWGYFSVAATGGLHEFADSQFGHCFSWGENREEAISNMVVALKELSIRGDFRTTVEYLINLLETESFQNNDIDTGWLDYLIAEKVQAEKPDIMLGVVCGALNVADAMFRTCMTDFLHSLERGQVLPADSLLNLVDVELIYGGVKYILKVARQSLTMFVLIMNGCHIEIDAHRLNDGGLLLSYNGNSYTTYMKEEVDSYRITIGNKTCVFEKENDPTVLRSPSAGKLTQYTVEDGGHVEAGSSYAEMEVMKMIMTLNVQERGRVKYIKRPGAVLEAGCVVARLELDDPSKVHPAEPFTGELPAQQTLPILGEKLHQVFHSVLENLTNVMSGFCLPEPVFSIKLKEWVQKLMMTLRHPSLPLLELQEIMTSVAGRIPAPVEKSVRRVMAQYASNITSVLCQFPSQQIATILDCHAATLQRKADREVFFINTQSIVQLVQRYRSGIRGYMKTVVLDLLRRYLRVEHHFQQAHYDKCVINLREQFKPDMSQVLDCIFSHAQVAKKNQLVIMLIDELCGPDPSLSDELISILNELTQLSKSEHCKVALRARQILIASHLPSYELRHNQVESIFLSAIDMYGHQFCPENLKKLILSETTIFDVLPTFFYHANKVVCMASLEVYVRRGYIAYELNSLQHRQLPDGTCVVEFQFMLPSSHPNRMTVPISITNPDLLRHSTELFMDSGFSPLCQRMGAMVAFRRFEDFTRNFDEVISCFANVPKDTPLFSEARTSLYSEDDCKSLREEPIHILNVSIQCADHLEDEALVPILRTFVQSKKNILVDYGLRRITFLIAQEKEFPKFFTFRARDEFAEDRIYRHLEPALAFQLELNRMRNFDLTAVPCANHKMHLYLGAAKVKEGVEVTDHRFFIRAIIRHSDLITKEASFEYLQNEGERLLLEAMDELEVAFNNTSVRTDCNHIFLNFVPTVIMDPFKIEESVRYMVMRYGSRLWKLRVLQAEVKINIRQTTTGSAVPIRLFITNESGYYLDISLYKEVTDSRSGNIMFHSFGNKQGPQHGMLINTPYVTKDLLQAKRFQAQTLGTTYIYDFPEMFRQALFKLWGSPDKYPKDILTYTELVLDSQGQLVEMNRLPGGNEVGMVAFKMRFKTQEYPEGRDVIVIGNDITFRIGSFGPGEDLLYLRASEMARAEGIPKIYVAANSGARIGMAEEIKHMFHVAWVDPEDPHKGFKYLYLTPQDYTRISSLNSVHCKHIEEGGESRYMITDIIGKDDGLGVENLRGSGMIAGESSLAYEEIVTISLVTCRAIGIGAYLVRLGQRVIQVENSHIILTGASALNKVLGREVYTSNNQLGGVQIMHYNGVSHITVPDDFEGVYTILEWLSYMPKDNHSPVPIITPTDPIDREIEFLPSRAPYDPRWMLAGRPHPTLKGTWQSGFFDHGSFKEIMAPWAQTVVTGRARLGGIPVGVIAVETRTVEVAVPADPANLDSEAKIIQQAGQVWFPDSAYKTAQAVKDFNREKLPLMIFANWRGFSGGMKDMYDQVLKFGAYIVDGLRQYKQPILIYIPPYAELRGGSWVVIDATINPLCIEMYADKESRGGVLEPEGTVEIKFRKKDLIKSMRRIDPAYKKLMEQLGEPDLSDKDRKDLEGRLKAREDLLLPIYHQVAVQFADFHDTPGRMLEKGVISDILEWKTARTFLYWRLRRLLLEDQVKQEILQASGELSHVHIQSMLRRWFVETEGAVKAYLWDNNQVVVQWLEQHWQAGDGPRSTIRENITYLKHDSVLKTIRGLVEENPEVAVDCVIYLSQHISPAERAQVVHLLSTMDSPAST

Structure (SMILES) | IC50 ([1]; Table 2a) [nM] | IC50 ([1]; Table 2b, additional results) [nM] | MIC [2, 11] [µg/mL] | MIC [2, 12] [µg/mL] | MIC [3, 13] [µg/mL] | MIC [3, 14] [µg/mL] | IC90 [4, 15] [µg/mL] | IC90 [4, 16] [µg/mL] | IC90 [5, 17] [µg/mL] | IC90 [5, 18] [µg/mL] | IC90 [6, 19] [µg/mL] | IC90 [6, 20] [µg/mL] | IC90 [7, 21] [µg/mL] | IC90 [7, 22] [µg/mL] | IC90 [8, 23] [µg/mL] | IC90 [8, 24] [µg/mL] | IC90 [9, 25] [µg/mL] | IC90 [9, 26] [µg/mL] | IC50 ([10]; Table 2a) [nM] | IC50 ([10]; Table 2b, additional results) [nM] | also measured
COc1ccc(F)cc1[C@H](Cn1c(=O)n(C(C)(C)C(=O)NC(C)C)c(=O)c2c(C)c(-n3nccn3)sc21)OC[C@H](C)O [Compound I-47, 2-(1-((R)-2-(5-fluoro-2-methoxyphenyl)-2-((S)-2-hydroxypropoxy)ethyl)-5-methyl-2,4-dioxo-6-(2H-1,2,3-triazol-2-yl)-1,4-dihydro-thieno[2,3-d]pyrimidin-3(2H)-yl)-N-isopropyl-2-methylpropanamide] | 10 to 40 | 10 to 40 | 0.25 to 1 (≈ 0.415 to 1.66 µM) | 0.25 to 1 (≈ 0.415 to 1.66 µM) | 0.25 to 1 (≈ 0.415 to 1.66 µM) | 1.01 to 2 (≈ 1.68 to 3.32 µM) | 0.4 (≈ 0.664 µM) | 0.4 (≈ 0.664 µM) | 0.4 (≈ 0.664 µM) | 0.4 (≈ 0.664 µM) | 0.4 (≈ 0.664 µM) | 0.4 (≈ 0.664 µM) | > 50 | > 50 | 0.4 (≈ 0.664 µM) | 0.4 (≈ 0.664 µM) | 10 (≈ 16.6 µM) | > 50 | 1 to 5 | 1 to 5 | 
COc1ccc(F)cc1[C@H](Cn1c(=O)n(C(C)(C)C(=O)N2CCCC2)c(=O)c2c(C)c(-n3nccn3)sc21)OC[C@H](C)O [Compound I-48, 1-((R)-2-(5-fluoro-2-methoxyphenyl)-2-((S)-2-hydroxy-propoxy)ethyl)-5-methyl-3-(2-methyl-1-oxo-1-(pyrrolidin-1-yl)propan-2-yl)-6-(2H-1,2,3-triazol-2-yl)thieno[2,3-d]pyrimidine-2,4(1H,3H)-dione] | 5 to 10 | 5 to 10 |  |  |  |  |  |  |  |  |  |  |  |  |  |  |  |  | 0.4 to 1 | 0.3 to 1 | MIC ([2]; Table 3a, ATCC 90028, 3 replicates, MIC recorded at 48 h, read-out: MIC, C. albicans ATCC 90028): 1.1 to 2 µg/mL (≈ 1.79 to 3.25 µM); MIC ([2]; Table 3b (additional results), ATCC 90028, 3 replicates, MIC recorded at 48 h, read-out: MIC, C. albicans ATCC 90028): 0.25 to 1 µg/mL (≈ 0.407 to 1.63 µM); MIC ([3]; Table 3a, ATCC 22019, 3 replicates, MIC recorded at 48 h, read-out: MIC, C. parapsilosis ATCC 22019): 2.1 to 4 µg/mL (≈ 3.42 to 6.51 µM); MIC ([3]; Table 3b (additional results), ATCC 22019, 3 replicates, MIC recorded at 48 h, read-out: MIC, C. parapsilosis ATCC 22019): 1.01 to 2 µg/mL (≈ 1.64 to 3.25 µM); IC90 ([4]; Botrtyis cinerea, growth inhibition at 48 hours vs 2% DMSO control, read-out: Concentration at 90% Inhibition Bc): 2 µg/mL (≈ 3.25 µM); IC90 ([4]; Botrtyis cinerea, growth inhibition vs 2% DMSO control at 48 hours, read-out: Concentration at 90% Inhibition Bc): 2 µg/mL (≈ 3.25 µM); IC90 ([5]; Collectotrichum graminicola, growth inhibition at 48 hours vs 2% DMSO control, read-out: Concentration at 90% Inhibition Cg): 0.4 µg/mL (≈ 0.651 µM); IC90 ([5]; Collectotrichum graminicola, growth inhibition vs 2% DMSO control at 48 hours, read-out: Concentration at 90% Inhibition Cg): 0.4 µg/mL (≈ 0.651 µM); IC90 ([6]; Diplodia maydis, growth inhibition at 48 hours vs 2% DMSO control, read-out: Concentration at 90% Inhibition Dm): 2 µg/mL (≈ 3.25 µM); IC90 ([6]; Diplodia maydis, growth inhibition vs 2% DMSO control at 48 hours, read-out: Concentration at 90% Inhibition Dm): 2 µg/mL (≈ 3.25 µM); IC90 ([7]; growth inhibition at 48 hours vs 2% DMSO control, read-out: Concentration at 90% Inhibition Pc): > 50 µg/mL; IC90 ([7]; growth inhibition vs 2% DMSO control at 48 hours, read-out: Concentration at 90% Inhibition Pc): > 50 µg/mL; IC90 ([8]; mycelial plugs, growth inhibition at 48 hours vs 2% DMSO control, read-out: Concentration at 90% Inhibition Rs): 2 µg/mL (≈ 3.25 µM); IC90 ([8]; mycelial plugs, growth inhibition vs 2% DMSO control at 48 hours, read-out: Concentration at 90% Inhibition Rs): 10 µg/mL (≈ 16.3 µM); IC90 ([9]; Septoria tritici, growth inhibition at 48 hours vs 2% DMSO control, read-out: Concentration at 90% Inhibition St): > 50 µg/mL; IC90 ([9]; Septoria tritici, growth inhibition vs 2% DMSO control at 48 hours, read-out: Concentration at 90% Inhibition St): > 50 µg/mL
COc1ccc(F)cc1[C@H](Cn1c(=O)n(C(C)(C)C(=O)N(C)C)c(=O)c2c(C)c(-n3nccn3)sc21)OC(C)C [Compound I-49, (R)-2-(1-(2-(5-fluoro-2-methoxyphenyl)-2-isopropoxy-ethyl)-5-methyl-2,4-dioxo-6-(2H-1,2,3-triazol-2-yl)-1,4-dihydrothieno[2,3-d]pyrimi-din-3(2H)-yl)-N,N,2-trimethylpropanamide] | 10 to 40 | 10 to 40 | 2.1 to 4 (≈ 3.67 to 6.98 µM) | 1.01 to 2 (≈ 1.76 to 3.49 µM) | 2.1 to 4 (≈ 3.67 to 6.98 µM) | > 4.01 | 0.4 (≈ 0.698 µM) | 0.4 (≈ 0.698 µM) | 10 (≈ 17.5 µM) | > 50 | 2 (≈ 3.49 µM) | 2 (≈ 3.49 µM) | > 50 | > 50 | 0.4 (≈ 0.698 µM) | 0.4 (≈ 0.698 µM) | > 50 | > 50 | 1 to 5 | 1 to 5 | 
CNC(=O)C(C)(C)n1c(=O)c2c(C)c(-n3nccn3)sc2n(C[C@H](OC(C)C)c2cc(F)ccc2OC)c1=O [Compound I-50, (R)-2-(1-(2-(5-fluoro-2-methoxyphenyl)-2-isopropoxy-ethyl)-5-methyl-2,4-dioxo-6-(2H-1,2,3-triazol-2-yl)-1,4-dihydrothieno[2,3-d]pyrimidin-3(2H)-yl)-N,2-dimethylpropanamide] | 5 to 10 | 5 to 10 | 1.1 to 2 (≈ 1.97 to 3.58 µM) | 1.01 to 2 (≈ 1.81 to 3.58 µM) | 2.1 to 4 (≈ 3.76 to 7.16 µM) | 2.01 to 4 (≈ 3.6 to 7.16 µM) | 2 (≈ 3.58 µM) | 2 (≈ 3.58 µM) | 2 (≈ 3.58 µM) | 10 (≈ 17.9 µM) | 10 (≈ 17.9 µM) | > 50 | > 50 | > 50 | 2 (≈ 3.58 µM) | 10 (≈ 17.9 µM) | > 50 | > 50 | 1 to 5 | 1 to 5 | 
